Laboratory results: the supplement of paper PMC10307832

Assays:
Assay in all cases: relative viability (nuclei count vs DMSO), 5 days (fraction); higher = more cells survive
NCI-H1666 = test system: NCI-H1666
Summary of the method: (§1)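 Lung cancer cell lines in 1536-well plates were dosed by pin tool the day after seeding, either with one drug alone or with a fixed anchor-drug dose plus five library-drug doses (not always all listed) in √10 steps. After 5 days, cells were fixed and their nuclei stained in one step (final 0.05% Triton X-100, 1% formaldehyde, 1 ug/ml Hoechst), then counted on 4× images. Relative viability is the nuclei count in treated wells divided by that in vehicle wells. Values are medians of duplicate plates.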

UMC-11 = test system: UMC-11
Summary of the method: as §1

LU99A = test system: LU99A
Summary of the method: as §1

COR-L 105 = test system: COR-L 105
Summary of the method: as §1

LC-2-ad = test system: LC-2-ad
Summary of the method: as §1

NCI-H1792 = test system: NCI-H1792
Summary of the method: as §1

NCI-H358 = test system: NCI-H358
Summary of the method: as §1

NCI-H1915 = test system: NCI-H1915
Summary of the method: as §1

LXF-289 = test system: LXF-289
Summary of the method: as §1

HCC-78 = test system: HCC-78
Summary of the method: as §1

EPLC-272H = test system: EPLC-272H
Summary of the method: as §1

NCI-H1944 = test system: NCI-H1944
Summary of the method: as §1

NCI-H2170 = test system: NCI-H2170
Summary of the method: as §1

NCI-H2009 = test system: NCI-H2009
Summary of the method: as §1

NCI-H2085 = test system: NCI-H2085
Summary of the method: as §1

SK-LU-1 = test system: SK-LU-1
Summary of the method: as §1

NCI-H460 = test system: NCI-H460
Summary of the method: as §1

SW 900 = test system: SW 900
Summary of the method: as §1

HCC-366 = test system: HCC-366
Summary of the method: as §1

NCI-H1793 = test system: NCI-H1793
Summary of the method: as §1

A-427 = test system: A-427
Summary of the method: as §1

HOP-62 = test system: HOP-62
Summary of the method: as §1

Question: Which relative viability (NCI-H1666; first compound 0.08 µM) does the source give for O=c1cc(-c2cccc3c2Sc2ccccc2S3)oc(N2CCOCC2)c1 + N=C(N)NC(=N)NCCc1ccccc1 [Phenformin] (partner 250 µM) here?
Answer: 0.601

Question: And the relative viability (NCI-H1666; first compound 0.253 µM)?
Answer: 0.644

Question: And the relative viability (NCI-H1666; first compound 0.8 µM)?
Answer: 0.578

Question: What about the relative viability (NCI-H1666; first compound 2.53 µM) of the same compound?
Answer: 0.572

Question: And the relative viability (NCI-H1666; first compound 8 µM)?
Answer: 0.585

Question: And the relative viability (UMC-11; first compound 0.08 µM)?
Answer: 0.322

Question: What about the relative viability (UMC-11; first compound 0.253 µM) of the same compound?
Answer: 0.34

Question: And the relative viability (UMC-11; first compound 0.8 µM)?
Answer: 0.372

Question: What about the relative viability (UMC-11; first compound 2.53 µM) of the same compound?
Answer: 0.29

Question: And the relative viability (UMC-11; first compound 8 µM)?
Answer: 0.324

Question: And the relative viability (LU99A; first compound 0.08 µM)?
Answer: 0.872

Question: And the relative viability (LU99A; first compound 0.253 µM)?
Answer: 1.08

Question: And the relative viability (LU99A; first compound 0.8 µM)?
Answer: 1.03

Question: And the relative viability (LU99A; first compound 2.53 µM)?
Answer: 0.896

Question: And the relative viability (LU99A; first compound 8 µM)?
Answer: 1

Question: What about the relative viability (COR-L 105; first compound 0.08 µM) of the same compound?
Answer: 0.454

Question: And the relative viability (COR-L 105; first compound 0.253 µM)?
Answer: 0.471

Question: And the relative viability (COR-L 105; first compound 0.8 µM)?
Answer: 0.466

Question: And the relative viability (COR-L 105; first compound 2.53 µM)?
Answer: 0.507

Question: And the relative viability (COR-L 105; first compound 8 µM)?
Answer: 0.47

Question: What about the relative viability (LC-2-ad; first compound 0.08 µM) of the same compound?
Answer: 0.557

Question: And the relative viability (LC-2-ad; first compound 0.253 µM)?
Answer: 0.576

Question: What about the relative viability (LC-2-ad; first compound 0.8 µM) of the same compound?
Answer: 0.645

Question: What about the relative viability (LC-2-ad; first compound 2.53 µM) of the same compound?
Answer: 0.558

Question: And the relative viability (LC-2-ad; first compound 8 µM)?
Answer: 0.592

Question: What about the relative viability (NCI-H1792; first compound 0.08 µM) of the same compound?
Answer: 0.185

Question: What about the relative viability (NCI-H1792; first compound 0.253 µM) of the same compound?
Answer: 0.349

Question: What about the relative viability (NCI-H1792; first compound 0.8 µM) of the same compound?
Answer: 0.258

Question: And the relative viability (NCI-H1792; first compound 2.53 µM)?
Answer: 0.168

Question: What about the relative viability (NCI-H1792; first compound 8 µM) of the same compound?
Answer: 0.345

Question: And the relative viability (NCI-H358; first compound 0.08 µM)?
Answer: 0.301

Question: What about the relative viability (NCI-H358; first compound 0.253 µM) of the same compound?
Answer: 0.436

Question: What about the relative viability (NCI-H358; first compound 0.8 µM) of the same compound?
Answer: 0.378

Question: What about the relative viability (NCI-H358; first compound 2.53 µM) of the same compound?
Answer: 0.362

Question: What about the relative viability (NCI-H358; first compound 8 µM) of the same compound?
Answer: 0.356

Question: What about the relative viability (NCI-H1915; first compound 0.08 µM) of the same compound?
Answer: 0.37

Question: And the relative viability (NCI-H1915; first compound 0.253 µM)?
Answer: 0.4

Question: What about the relative viability (NCI-H1915; first compound 0.8 µM) of the same compound?
Answer: 0.436

Question: What about the relative viability (NCI-H1915; first compound 2.53 µM) of the same compound?
Answer: 0.355

Question: And the relative viability (NCI-H1915; first compound 8 µM)?
Answer: 0.406

Question: And the relative viability (LXF-289; first compound 0.08 µM)?
Answer: 0.531

Question: What about the relative viability (LXF-289; first compound 0.253 µM) of the same compound?
Answer: 0.526

Question: What about the relative viability (LXF-289; first compound 0.8 µM) of the same compound?
Answer: 0.556

Question: What about the relative viability (LXF-289; first compound 2.53 µM) of the same compound?
Answer: 0.431

Question: What about the relative viability (LXF-289; first compound 8 µM) of the same compound?
Answer: 0.558

Question: And the relative viability (HCC-78; first compound 0.08 µM)?
Answer: 0.62

Question: And the relative viability (HCC-78; first compound 0.253 µM)?
Answer: 0.769

Question: What about the relative viability (HCC-78; first compound 0.8 µM) of the same compound?
Answer: 0.638

Question: What about the relative viability (HCC-78; first compound 2.53 µM) of the same compound?
Answer: 0.555

Question: And the relative viability (HCC-78; first compound 8 µM)?
Answer: 0.667

Question: And the relative viability (EPLC-272H; first compound 0.08 µM)?
Answer: 0.247

Question: What about the relative viability (EPLC-272H; first compound 0.253 µM) of the same compound?
Answer: 0.333

Question: What about the relative viability (EPLC-272H; first compound 0.8 µM) of the same compound?
Answer: 0.318

Question: And the relative viability (EPLC-272H; first compound 2.53 µM)?
Answer: 0.254

Question: What about the relative viability (EPLC-272H; first compound 8 µM) of the same compound?
Answer: 0.255

Question: What about the relative viability (NCI-H1944; first compound 0.08 µM) of the same compound?
Answer: 0.192

Question: And the relative viability (NCI-H1944; first compound 0.253 µM)?
Answer: 0.21

Question: And the relative viability (NCI-H1944; first compound 0.8 µM)?
Answer: 0.186

Question: And the relative viability (NCI-H1944; first compound 2.53 µM)?
Answer: 0.168

Question: And the relative viability (NCI-H1944; first compound 8 µM)?
Answer: 0.22

Question: And the relative viability (NCI-H2170; first compound 0.08 µM)?
Answer: 0.427

Question: What about the relative viability (NCI-H2170; first compound 0.253 µM) of the same compound?
Answer: 0.444

Question: What about the relative viability (NCI-H2170; first compound 0.8 µM) of the same compound?
Answer: 0.431

Question: And the relative viability (NCI-H2170; first compound 2.53 µM)?
Answer: 0.319

Question: What about the relative viability (NCI-H2170; first compound 8 µM) of the same compound?
Answer: 0.444

Question: And the relative viability (NCI-H2009; first compound 0.08 µM)?
Answer: 0.481

Question: And the relative viability (NCI-H2009; first compound 0.253 µM)?
Answer: 0.545

Question: And the relative viability (NCI-H2009; first compound 0.8 µM)?
Answer: 0.522

Question: What about the relative viability (NCI-H2009; first compound 2.53 µM) of the same compound?
Answer: 0.445

Question: What about the relative viability (NCI-H2009; first compound 8 µM) of the same compound?
Answer: 0.446

Question: What about the relative viability (NCI-H2085; first compound 0.08 µM) of the same compound?
Answer: 0.654

Question: And the relative viability (NCI-H2085; first compound 0.253 µM)?
Answer: 0.702

Question: What about the relative viability (NCI-H2085; first compound 0.8 µM) of the same compound?
Answer: 0.739

Question: And the relative viability (NCI-H2085; first compound 2.53 µM)?
Answer: 0.678

Question: And the relative viability (NCI-H2085; first compound 8 µM)?
Answer: 0.576

Question: What about the relative viability (SK-LU-1; first compound 0.08 µM) of the same compound?
Answer: 0.545

Question: And the relative viability (SK-LU-1; first compound 0.253 µM)?
Answer: 0.551

Question: What about the relative viability (SK-LU-1; first compound 0.8 µM) of the same compound?
Answer: 0.737

Question: And the relative viability (SK-LU-1; first compound 2.53 µM)?
Answer: 0.459

Question: What about the relative viability (SK-LU-1; first compound 8 µM) of the same compound?
Answer: 0.527

Question: What about the relative viability (NCI-H460; first compound 0.08 µM) of the same compound?
Answer: 0.535

Question: What about the relative viability (NCI-H460; first compound 0.253 µM) of the same compound?
Answer: 0.549

Question: And the relative viability (NCI-H460; first compound 0.8 µM)?
Answer: 0.571

Question: And the relative viability (NCI-H460; first compound 2.53 µM)?
Answer: 0.525

Question: And the relative viability (NCI-H460; first compound 8 µM)?
Answer: 0.531

Question: What about the relative viability (SW 900; first compound 0.08 µM) of the same compound?
Answer: 0.645

Question: And the relative viability (SW 900; first compound 0.253 µM)?
Answer: 0.627

Question: What about the relative viability (SW 900; first compound 0.8 µM) of the same compound?
Answer: 0.441

Question: What about the relative viability (SW 900; first compound 2.53 µM) of the same compound?
Answer: 0.567

Question: What about the relative viability (SW 900; first compound 8 µM) of the same compound?
Answer: 0.597

Question: And the relative viability (HCC-366; first compound 0.08 µM)?
Answer: 0.588

Question: What about the relative viability (HCC-366; first compound 0.253 µM) of the same compound?
Answer: 0.727

Question: What about the relative viability (HCC-366; first compound 0.8 µM) of the same compound?
Answer: 0.71

Question: And the relative viability (HCC-366; first compound 2.53 µM)?
Answer: 0.549

Question: And the relative viability (HCC-366; first compound 8 µM)?
Answer: 0.632

Question: And the relative viability (NCI-H1793; first compound 0.08 µM)?
Answer: 0.344

Question: And the relative viability (NCI-H1793; first compound 0.253 µM)?
Answer: 0.398

Question: And the relative viability (NCI-H1793; first compound 0.8 µM)?
Answer: 0.347

Question: What about the relative viability (NCI-H1793; first compound 2.53 µM) of the same compound?
Answer: 0.306

Question: And the relative viability (NCI-H1793; first compound 8 µM)?
Answer: 0.279

Question: And the relative viability (A-427; first compound 0.08 µM)?
Answer: 0.282

Question: What about the relative viability (A-427; first compound 0.253 µM) of the same compound?
Answer: 0.313

Question: What about the relative viability (A-427; first compound 0.8 µM) of the same compound?
Answer: 0.376

Question: And the relative viability (A-427; first compound 8 µM)?
Answer: 0.35

Question: What about the relative viability (HOP-62; first compound 0.08 µM) of the same compound?
Answer: 0.714

Question: What about the relative viability (HOP-62; first compound 0.253 µM) of the same compound?
Answer: 0.899

Question: And the relative viability (HOP-62; first compound 0.8 µM)?
Answer: 0.688

Question: And the relative viability (HOP-62; first compound 2.53 µM)?
Answer: 0.663

Question: And the relative viability (HOP-62; first compound 8 µM)?
Answer: 0.799
